Laboratory results taken from the supplement of paper PMC12076712.

What was measured:
Assay in all cases: pIC50, kinobeads binding competition
Details in all cases: cell material: Jurkat lysate
ACVR2B = ACVR2B (UniProt Q13705)
AKT2 = AKT2 (UniProt P31751)
BLK = BLK (UniProt P51451)
MARK4 = target: T1, MARK4 (UniProt Q96L34)
T1 sequence (whole entry): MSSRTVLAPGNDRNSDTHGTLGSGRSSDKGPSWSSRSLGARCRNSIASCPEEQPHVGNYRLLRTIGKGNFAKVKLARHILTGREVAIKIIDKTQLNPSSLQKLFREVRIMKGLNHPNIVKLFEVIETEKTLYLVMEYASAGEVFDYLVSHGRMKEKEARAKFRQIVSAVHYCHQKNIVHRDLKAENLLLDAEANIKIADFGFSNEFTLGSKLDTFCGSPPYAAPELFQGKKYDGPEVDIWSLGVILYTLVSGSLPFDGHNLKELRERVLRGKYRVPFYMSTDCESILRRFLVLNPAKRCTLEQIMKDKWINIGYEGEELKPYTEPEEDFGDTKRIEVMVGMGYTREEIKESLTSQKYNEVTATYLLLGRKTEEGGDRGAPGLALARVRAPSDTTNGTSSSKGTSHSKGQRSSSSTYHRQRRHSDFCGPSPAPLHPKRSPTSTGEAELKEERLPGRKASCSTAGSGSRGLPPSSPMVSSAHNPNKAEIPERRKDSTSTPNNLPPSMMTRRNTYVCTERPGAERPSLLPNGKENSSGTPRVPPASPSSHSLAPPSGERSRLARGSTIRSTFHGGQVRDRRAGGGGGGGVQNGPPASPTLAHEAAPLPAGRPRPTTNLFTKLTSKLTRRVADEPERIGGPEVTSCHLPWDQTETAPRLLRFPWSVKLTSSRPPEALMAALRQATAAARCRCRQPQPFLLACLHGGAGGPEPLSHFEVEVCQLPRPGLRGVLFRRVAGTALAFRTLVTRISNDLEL

PIK3R4 = PIK3R4 (UniProt Q99570)
PIP4K2A = target: T2, PIP4K2A (UniProt P48426)
T2 sequence (whole entry): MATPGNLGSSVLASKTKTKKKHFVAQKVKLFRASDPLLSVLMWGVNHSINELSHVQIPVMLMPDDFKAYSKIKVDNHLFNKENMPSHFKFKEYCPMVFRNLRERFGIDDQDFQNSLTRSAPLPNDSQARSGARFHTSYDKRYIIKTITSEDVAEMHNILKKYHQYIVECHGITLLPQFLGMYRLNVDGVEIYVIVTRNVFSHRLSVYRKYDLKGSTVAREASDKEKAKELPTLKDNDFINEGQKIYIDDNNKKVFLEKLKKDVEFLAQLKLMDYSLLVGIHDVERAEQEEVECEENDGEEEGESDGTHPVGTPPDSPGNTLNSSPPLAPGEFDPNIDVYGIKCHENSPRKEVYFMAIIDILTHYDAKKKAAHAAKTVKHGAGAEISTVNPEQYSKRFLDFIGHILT

RIOK1 = target: T3, RIOK1 (UniProt Q9BRS2)
T3 sequence (whole entry): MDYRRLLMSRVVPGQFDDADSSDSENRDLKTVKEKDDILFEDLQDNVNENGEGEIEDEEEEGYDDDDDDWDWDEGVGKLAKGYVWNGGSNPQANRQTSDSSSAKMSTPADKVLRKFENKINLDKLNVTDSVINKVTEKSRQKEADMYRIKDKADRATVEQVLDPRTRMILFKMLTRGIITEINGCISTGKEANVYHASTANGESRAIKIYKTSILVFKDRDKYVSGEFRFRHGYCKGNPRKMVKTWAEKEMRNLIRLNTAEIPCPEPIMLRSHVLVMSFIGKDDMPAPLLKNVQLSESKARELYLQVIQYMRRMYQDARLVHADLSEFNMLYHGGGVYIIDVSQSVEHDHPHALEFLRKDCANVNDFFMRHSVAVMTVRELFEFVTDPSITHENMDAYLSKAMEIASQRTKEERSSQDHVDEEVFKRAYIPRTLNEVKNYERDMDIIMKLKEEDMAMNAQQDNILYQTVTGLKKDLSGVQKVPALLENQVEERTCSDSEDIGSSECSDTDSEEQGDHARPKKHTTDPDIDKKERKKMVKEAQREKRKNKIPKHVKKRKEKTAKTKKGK

UniProt Q13043 = target: T4, UniProt Q13043
T4 sequence (whole entry): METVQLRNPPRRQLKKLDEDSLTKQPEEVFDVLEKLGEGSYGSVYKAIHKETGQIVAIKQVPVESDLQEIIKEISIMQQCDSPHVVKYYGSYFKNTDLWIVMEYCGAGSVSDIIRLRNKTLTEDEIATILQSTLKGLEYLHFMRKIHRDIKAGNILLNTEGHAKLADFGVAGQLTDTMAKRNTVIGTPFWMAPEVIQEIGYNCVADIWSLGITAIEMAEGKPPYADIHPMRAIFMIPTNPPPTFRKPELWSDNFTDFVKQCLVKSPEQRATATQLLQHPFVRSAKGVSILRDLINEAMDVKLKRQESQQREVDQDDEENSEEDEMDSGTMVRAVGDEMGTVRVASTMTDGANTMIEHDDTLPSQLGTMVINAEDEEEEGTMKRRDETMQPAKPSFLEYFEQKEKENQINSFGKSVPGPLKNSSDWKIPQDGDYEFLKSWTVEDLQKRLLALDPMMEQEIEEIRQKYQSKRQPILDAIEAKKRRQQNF

UniProt Q16512 = target: UniProt Q16512

Measured: pIC50

Sequence of UniProt Q16512 (Q16512 whole entry, looked up): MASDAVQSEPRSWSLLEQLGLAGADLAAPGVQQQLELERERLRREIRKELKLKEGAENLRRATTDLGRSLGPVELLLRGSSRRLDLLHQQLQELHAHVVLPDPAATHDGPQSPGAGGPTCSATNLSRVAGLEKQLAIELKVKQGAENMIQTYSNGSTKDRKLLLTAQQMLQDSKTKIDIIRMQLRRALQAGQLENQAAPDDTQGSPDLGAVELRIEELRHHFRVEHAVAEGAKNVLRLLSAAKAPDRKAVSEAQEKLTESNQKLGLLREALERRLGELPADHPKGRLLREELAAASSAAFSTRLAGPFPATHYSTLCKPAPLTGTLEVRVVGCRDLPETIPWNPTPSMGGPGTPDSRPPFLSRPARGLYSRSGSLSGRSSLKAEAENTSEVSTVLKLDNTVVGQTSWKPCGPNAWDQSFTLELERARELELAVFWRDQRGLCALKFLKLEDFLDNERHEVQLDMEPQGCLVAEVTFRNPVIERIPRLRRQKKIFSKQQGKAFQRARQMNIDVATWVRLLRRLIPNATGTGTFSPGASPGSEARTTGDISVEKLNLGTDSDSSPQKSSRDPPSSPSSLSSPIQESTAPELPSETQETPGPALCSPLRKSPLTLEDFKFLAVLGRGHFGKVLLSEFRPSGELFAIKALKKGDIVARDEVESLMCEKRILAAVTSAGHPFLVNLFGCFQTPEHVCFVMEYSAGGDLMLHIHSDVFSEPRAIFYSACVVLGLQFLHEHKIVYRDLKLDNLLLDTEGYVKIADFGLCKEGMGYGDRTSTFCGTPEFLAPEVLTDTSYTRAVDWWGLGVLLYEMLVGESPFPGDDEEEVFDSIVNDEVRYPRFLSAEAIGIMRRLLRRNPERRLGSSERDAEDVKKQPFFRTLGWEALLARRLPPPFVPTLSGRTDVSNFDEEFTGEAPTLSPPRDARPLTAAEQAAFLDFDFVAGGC
Sequence of BLK (P51451 whole entry, looked up): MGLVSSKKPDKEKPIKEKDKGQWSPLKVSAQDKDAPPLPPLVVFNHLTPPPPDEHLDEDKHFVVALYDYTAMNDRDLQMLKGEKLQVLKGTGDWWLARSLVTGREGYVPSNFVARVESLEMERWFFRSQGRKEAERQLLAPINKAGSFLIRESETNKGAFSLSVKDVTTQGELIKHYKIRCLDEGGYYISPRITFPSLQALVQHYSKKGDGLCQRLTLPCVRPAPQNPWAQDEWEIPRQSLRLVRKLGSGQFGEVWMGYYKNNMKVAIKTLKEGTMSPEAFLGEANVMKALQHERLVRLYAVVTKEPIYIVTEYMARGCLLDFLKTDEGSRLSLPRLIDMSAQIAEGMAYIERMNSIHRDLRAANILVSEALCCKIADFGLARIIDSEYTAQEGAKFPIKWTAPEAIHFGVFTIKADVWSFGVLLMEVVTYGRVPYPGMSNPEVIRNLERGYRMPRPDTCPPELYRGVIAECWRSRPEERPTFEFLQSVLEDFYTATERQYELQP
Sequence of AKT2 (P31751 whole entry): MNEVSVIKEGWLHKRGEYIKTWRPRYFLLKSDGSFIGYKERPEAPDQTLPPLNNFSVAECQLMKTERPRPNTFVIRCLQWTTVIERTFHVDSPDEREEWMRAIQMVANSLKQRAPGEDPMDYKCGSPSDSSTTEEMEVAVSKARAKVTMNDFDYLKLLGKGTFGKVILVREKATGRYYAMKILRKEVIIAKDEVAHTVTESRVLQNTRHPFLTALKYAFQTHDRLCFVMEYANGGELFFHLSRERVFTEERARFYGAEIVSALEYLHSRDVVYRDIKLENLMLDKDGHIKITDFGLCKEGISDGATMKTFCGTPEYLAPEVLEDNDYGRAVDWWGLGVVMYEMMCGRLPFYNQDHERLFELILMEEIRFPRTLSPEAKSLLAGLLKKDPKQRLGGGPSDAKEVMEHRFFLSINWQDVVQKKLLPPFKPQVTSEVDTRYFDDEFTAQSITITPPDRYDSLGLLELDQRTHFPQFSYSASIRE
Sequence of PIK3R4 (Q99570 whole entry): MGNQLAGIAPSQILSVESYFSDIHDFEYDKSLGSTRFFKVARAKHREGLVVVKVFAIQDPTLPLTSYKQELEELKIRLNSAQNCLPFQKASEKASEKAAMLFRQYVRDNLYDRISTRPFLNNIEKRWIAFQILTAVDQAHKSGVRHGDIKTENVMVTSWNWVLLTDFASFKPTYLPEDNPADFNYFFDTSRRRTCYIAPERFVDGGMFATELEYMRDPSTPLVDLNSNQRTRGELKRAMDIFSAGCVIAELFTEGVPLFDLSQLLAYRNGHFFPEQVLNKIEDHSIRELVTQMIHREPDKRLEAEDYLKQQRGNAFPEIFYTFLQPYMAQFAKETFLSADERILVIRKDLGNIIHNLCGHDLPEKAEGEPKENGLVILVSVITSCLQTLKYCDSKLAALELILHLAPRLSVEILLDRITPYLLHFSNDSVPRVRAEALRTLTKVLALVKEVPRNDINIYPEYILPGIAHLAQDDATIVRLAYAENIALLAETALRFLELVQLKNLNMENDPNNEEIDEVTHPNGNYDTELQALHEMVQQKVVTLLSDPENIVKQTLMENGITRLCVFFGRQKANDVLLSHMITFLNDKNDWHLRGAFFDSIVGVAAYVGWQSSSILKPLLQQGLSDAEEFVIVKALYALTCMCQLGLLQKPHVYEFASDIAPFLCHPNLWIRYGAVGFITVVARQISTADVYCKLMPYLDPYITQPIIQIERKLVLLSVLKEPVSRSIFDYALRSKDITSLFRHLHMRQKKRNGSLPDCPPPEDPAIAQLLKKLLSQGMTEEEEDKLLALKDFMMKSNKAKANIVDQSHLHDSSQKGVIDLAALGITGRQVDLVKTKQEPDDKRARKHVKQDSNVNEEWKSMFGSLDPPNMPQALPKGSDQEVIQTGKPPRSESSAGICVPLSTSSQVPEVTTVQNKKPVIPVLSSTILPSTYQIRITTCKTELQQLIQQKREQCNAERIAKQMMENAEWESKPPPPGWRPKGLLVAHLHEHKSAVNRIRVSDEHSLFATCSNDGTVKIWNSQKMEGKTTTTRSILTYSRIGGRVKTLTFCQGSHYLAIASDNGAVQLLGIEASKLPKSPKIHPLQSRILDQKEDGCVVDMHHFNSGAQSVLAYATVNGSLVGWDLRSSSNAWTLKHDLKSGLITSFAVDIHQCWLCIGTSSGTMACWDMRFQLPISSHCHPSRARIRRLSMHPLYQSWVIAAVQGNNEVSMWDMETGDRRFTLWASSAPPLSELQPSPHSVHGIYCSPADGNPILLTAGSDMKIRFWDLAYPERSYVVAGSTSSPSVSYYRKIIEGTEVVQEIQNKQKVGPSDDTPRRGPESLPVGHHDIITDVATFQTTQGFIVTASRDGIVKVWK
Sequence of ACVR2B (Q13705 whole entry): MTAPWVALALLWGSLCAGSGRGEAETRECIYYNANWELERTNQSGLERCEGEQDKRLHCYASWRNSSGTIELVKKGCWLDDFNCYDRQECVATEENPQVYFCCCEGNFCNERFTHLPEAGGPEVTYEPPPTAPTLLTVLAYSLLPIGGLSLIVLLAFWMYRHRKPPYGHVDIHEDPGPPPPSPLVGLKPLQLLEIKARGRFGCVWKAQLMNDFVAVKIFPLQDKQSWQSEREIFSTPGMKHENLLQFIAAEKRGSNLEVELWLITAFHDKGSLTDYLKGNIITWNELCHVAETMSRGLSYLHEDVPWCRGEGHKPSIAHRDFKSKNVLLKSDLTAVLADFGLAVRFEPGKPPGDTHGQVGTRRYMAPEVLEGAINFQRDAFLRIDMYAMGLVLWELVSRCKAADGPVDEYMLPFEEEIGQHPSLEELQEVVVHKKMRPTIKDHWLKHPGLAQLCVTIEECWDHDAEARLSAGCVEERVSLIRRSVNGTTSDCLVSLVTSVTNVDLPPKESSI

CCc1cnn2c(NCc3ccc[n+]([O-])c3)cc(N3CCCC[C@H]3CCO)nc12 [dinaciclib]
< 4.52: all assays above
